BindingDB's records for doi:10.1021/np970367q (Seoul National University, 1998)

Assay: Inhibition of bovine brain PI-PLCgamma1 at 125 ug/mL

Row | SMILES | IC50 [µM]
1 | CCCCCC/C=C\CCCCCCCCCc1cccc(O)c1 [3-[10'(Z)-heptadecenyl]phenol] | 95
2 | CCCCCCCCCCCCCCCc1cccc(O)c1 [3-pentadecylphenol] | 92.6

Compounds with a lower IC50, results first:

Row | IC50 [µM] | SMILES
3 | 88 | CCCCCCCCCCCCCc1cccc(O)c1 [3-tridecyl phenol]
4 | 76.3 | CCCCCC/C=C\CCCCCCCc1cccc(O)c1C(=O)O [6-{8(Z)-pentadecenyl}salicylic acid]
5 | 74 | CCCCCC/C=C\CCCCCCCCCc1cccc(O)c1C(=O)O [6-[10'(Z)-heptade-cenyljsalicylic acid]
